The subject of data set [1] is HCV luciferase replicon. Nature of the data set: HCV luciferase replicon IC50 assay in Huh7 cells. The note with it: for IC50: Hepatitis C virus, Huh-7, 48 h, Huh7 cells containing HCV luciferase replicon, cells exposed to drug for 48 h; for Therapeutic Index (TC50/IC50): TC50 in Huh7 / IC50 HCV replicon, 48 h. The procedure: Plating Cells: The Luciferase replicon cell line was passaged when it was at about 70% confluency. The cells were counted by using a hemocytometer and diluted to 1×10^5 cells per mL in DMEM+10% FBS+[…] G415. The cells were plated as follows: 100 μL of the cells (10,000 cells) per well in a white-walled 96-well plate. The cells were allowed to attach for 24 hours at 37° C.
(§1) Treating the cells: Media (DMEM+2% FBS) was pre-warmed to 37° C. […] The 96-well plate was removed from the 37° C. incubator, and the media replaced on the plate with the serial dilutions of the test drug. The plate was then returned to 37° C. for 48 h.
Luciferase Assay: The Bright-Glo reagent (Promega Corporation, Madison, Wis.) was removed from the −80° C. freezer and allowed to thaw it at 4° C. in the dark. The amount of reagent necessary for the experiment (3.65 mL) was removed, and the remaining reagent was returned to −80° C. The Glo Lysis Buffer and the Bright Glow reagent were allowed to warm to room temperature for 30 min in the dark. The 96 well plate was removed from the incubator and the cells to allowed cool to room temperature for 30 min. The media was removed from the cells, and each well was gently washed in 100 μL of phosphate buffered saline (PBS). The PBS was removed and then 50 μL of the Glo Lysis Buffer was added to each well, followed by gently rocking the plate for 15 min at room temperature in the dark to ensure complete cell lysis. To each well of the 96-well plate was added 50 μL of the Bright Glo reagent and it was mixed well with the lysate. The plate was inserted into a GloMax 96 plate reader and allowed to sit for 5 min in the dark for the luciferase reaction to reach a steady state. The luminescence on the plate was read by using the pre-installed “Bright Glo” Promega program (Synergy Software) and the data were collected and saved. The data were fit to a 4 parameter logistic curve using Kaleidagraph using the following equation: 100/(1+(x/m3)^m4).
The data in Table 1 were determined for cells exposed to drug for 48 h. The IC50 is the concentration of each compound necessary to inhibit the replication of the HCV luciferase replicon to 50%.
That is, the cells were exposed to drug for 2 h at 37° C., followed by 46 h at 37° C. or incubated in the presence of drug for 48 h at 37° C.
(In antiviral work, replicon cells carry a viral genome segment that copies itself.)

Data set [2] concerns Huh7 cells. Description: in vitro. The following applies: read-out: TC50; control Huh7 cells; 48 h drug exposure; MTS. The procedure:
(§2) Plating Cells: The Huh7 cell line was passaged when it was at about 70% confluency. The cells were counted using a hemocytometer, followed by dilution of the cells to 0.5×10^5 cells per mL in DMEM+10% FBS. The cells were plated at 100 μL (5,000 cells) per well in a clear 96-well plate. The cells were allowed to attach for 24 hours at 37° C.
(§3) Treating the cells: The media (DMEM media without phenol red+2% FBS media) was pre-warmed to 37° C. […] This provided a final DMSO concentration of 0.5%. The 100 mM stock of 3,5-dichlorobenzoic acid was diluted in DMEM without phenol red+2% FBS to a concentration of 0.5 mM. The working 0.5 mM diluted test drugs were serially diluted in DMEM without phenol red+2% FBS+0.5% DMSO in order to maintain a constant concentration of DMSO in each condition. The 96-well plate was removed from the 37° C. incubator, and the media on the plate was replaced with media containing diluted test drug.
(§4) MTS Assay: The reagents from CellTiter 96 kit (Promega Corporation, Madison, Wis.) were thawed at room temperature in the dark for 1 h. The 96-well plate was removed from the 37° C. incubator at 48 h after drug treatment. 20 μL of the combined MTS/PMS reagent to each well of the plate, mixed, and the plate returned to 37° C. The absorbance of each well at 490 nm and 650 nm was determined using the Flexstation 3 microplate reader in endpoint mode every hour for 3 h. The solutions in the wells were mixed prior to each reading. The data were fit to the Emax model: y=(Emax*x)/(TC50+x), where Emax is the maximum inhibition and TC50 is the inhibitory dose 50%. Alternatively, the data can be fit to the Emax sigmoidal model: y=(Emax*x^slope)/(TC50^slope+x^slope), where slope is the Hill Slope.

Data set [3] in a line: Compound solubility in media. Format: physicochemical. The following applies: DMEM+2% FBS cell culture media, 37 °C, plasma or biological fluid, kinetic from dmso stock; DMEM+2% FBS media. The procedure: as §1
Data set [4] relates to Huh7 cells. Description: TC50 MTS assay with human cancer cell lines: Huh7. Format: cell-based. The following applies: 96 h drug treatment. The procedure: (§5) Plating Cells: The Huh7, HEPG2, HEK293, MCF-7, PK9, RPK9, or BxPC3 cells were passaged when they were about 70% confluent. The cells were counted using a hemocytometer, and then diluted cells to 0.5×10^5 cells per mL in DMEM+10% FBS. 100 µL of the cells (5,000 cells) were plated per well in a clear 96-well plate. The cells were allowed to attach for 24 hours at 37° C.
(§6) Treating the cells: Pre-warm the DMEM media without phenol red+2% FBS media to 37° C. […] This will bring the final DMSO concentration to 0.5%. Use these 0.5 mM dilutions to further serially the drugs in DMEM without phenol red+2% FBS+0.5% DMSO. This will keep the concentration of DMSO in each condition identical. Remove the 96-well plate from the 37° C. incubator. Replace the media on the plate with the dilutions of the drugs. Stagger these treatments by 1 h and write the treatment time on each set of plates. Return to 37° C. for 48 h or 96 h as indicated.
as §4, with “Fit Data” for “The data were fit”, “Alternatively, fit” for “Alternatively,”, “data” for “data can be fit”
(§7) Each TC50 was the average value of three measurements as described herein. […] The RPK9 cells are deficient in deoxycytidine kinase (“dCK”) activity, an enzyme required for the initial phosphorylation of dFdC to dFdCMP (see FIG. 2).
A general note: Tetrazolium assays rely on reduction of a dye to a coloured formazan, in cell work by metabolically active cells.

Data set [5] is described as follows: TC50 MTS assay with human cancer cell lines: HEPG2. The note with it: HEPG2 cells, 96 h drug treatment. Format: cell-based. The procedure: as §5, §6
as §4, with “Fit Data” for “The data were fit”, “Alternatively, fit” for “Alternatively,”, “data” for “data can be fit”
as §7

A short description of data set [6]: TC50 MTS assay with human cancer cell lines: HEK293. The format is cell-based. The note with it: HEK293 cells, 96 h drug treatment. The procedure: as §5, §6
as §4, with “Fit Data” for “The data were fit”, “Alternatively, fit” for “Alternatively,”, “data” for “data can be fit”
as §7

The nature of data set [7]: TC50 MTS assay with human cancer cell lines: MCF-7. Format: cell-based. The note with it: MCF-7 cells, 96 h drug treatment. The procedure:
as §5, §6
as §4, with “Fit Data” for “The data were fit”, “Alternatively, fit” for “Alternatively,”, “data” for “data can be fit”
as §7

The subject of data set [8] is HCV luciferase replicon. Nature of the data set: Reversal of anti-HCV activity by exogenous nucleosides. The following applies: 48 h. Format: cell-based, hepatitis C virus (HCV). The procedure:
After 48 hours, the cells were lysed, and the total luciferase activity was determined. […] Where indicated, either 50 μM cytidine (C) or 50 μM 2′-deoxycitidine (dC) was also included.
The cells were plated, incubated with drug, and luciferase activity assayed essentially as described herein above. The incubation with drug was for 48 h.

Data set [9] can be described thus: TC50 MTS assay with human cancer cell lines: Huh7. Format: cell-based. The following applies: human, Huh7 cells; 48 h drug treatment; no hENT1 inhibitor; read-out: TC50 (μM) in Huh7 cells Control. The procedure:
as §5, §6
as §4, with “Fit Data” for “The data were fit”, “Alternatively, fit” for “Alternatively,”, “data” for “data can be fit”
as §7

For the next data set, the system named is hENT1. Description: TC50 MTS assay with human cancer cell lines: Huh7. Format: cell-based. The following applies: human, Huh7 cells; 48 h drug treatment; 10 μM S-(4-nitrobenzyl)-6-thioinosine (hENT1 inhibitor) added; read-out: TC50 (μM) in Huh7 cells NBTI. The procedure:
as §5, §6
as §4, with “Fit Data” for “The data were fit”, “Alternatively, fit” for “Alternatively,”, “data” for “data can be fit”
as §7

The nature of a further data set: in vitro. The procedure:
as §2, §3, §4

What is called IC50 is the midpoint of a concentration-inhibition curve. Broadly, the solubility is how much of the substance goes into solution per volume. Low readings indicate a poorly soluble substance, high ones a readily soluble substance. As for `COc1cc(OC)cc(C(=O)Nc2ccn([C@@H]3O[C@H](CO)[C@@H](O)C3(F)F)c(=O)n2)c1` [Compound G3DB, N^4-(3,5-Dimethoxybenzoyl)gemcitabine], the IC50 with HCV luciferase replicon [1] worked out at 0.0734 ± 0.012 µM. In addition, the “Therapeutic Index (TC50/IC50)” value with HCV luciferase replicon [1] stood at 13100. Besides, the values for the CC50 in the data set with Huh7 cells [2] and in the data set on Huh7 cells [4] were 962 ± 110 µM and 18.5 ± 5.32 µM, respectively. In data set [3], the solubility was > 500 µM. The CC50 at 96 h in data set [5] was 3.86 ± 1.42 µM; in data set [6], 4.02 ± 0.79 µM; in data set [7], 1.57 ± 0.338 µM. Further, the “reversal of the inhibition of the HCV luciferase replicon by deoxycytidine and cytidine” value in the data set with HCV luciferase replicon [8] (drug 1000, 100 or 25 nM, 50 μM cytidine or 2′-deoxycitidine) is reported as “reversal”.
For the molecule `Cc1ccc(C(=O)Nc2ccn(C3O[C@H](CO)[C@@H](O)C3(F)F)c(=O)n2)cc1` (stereo partly drawn) [VV-036], in the data set on HCV luciferase replicon [1], the IC50 was 0.0431 ± 0.0044 µM and the “Therapeutic Index (TC50/IC50)” value came out at 7650. Besides, the CC50 at 48 h in data set [9] stood at 329 ± 57 µM. In the data set with hENT1, the CC50 at 48 h is 240 ± 40 µM.
With `NC(=O)c1ncn([C@@H]2O[C@H](CO)[C@@H](O)[C@H]2O)n1` [ribavirin, reference compound], in the data set on HCV luciferase replicon [1], the IC50 came to 51.6 ± 2.08 µM and the “Therapeutic Index (TC50/IC50)” value was 10.2. For the same molecule, the CC50 at 48 h in “in vitro” was determined as 527 ± 68.2 µM. Moreover, the solubility in data set [3] is > 500 µM.
Take `O=C(Nc1ccn(C2O[C@H](CO)[C@@H](O)C2(F)F)c(=O)n1)c1ccc(Cl)cc1` (stereo partly drawn) [VV-033H]: in the data set with HCV luciferase replicon [1], the IC50 came to 0.0376 ± 0.0054 µM and the “Therapeutic Index (TC50/IC50)” value amounted to 3670. For the same molecule, the CC50 at 48 h in “in vitro” was 138 ± 28 µM.
For the molecule `O=C(Nc1ccn(C2O[C@H](CO)[C@@H](O)C2(F)F)c(=O)n1)c1ccc(Cl)c(Cl)c1` (stereo partly drawn) [VV-007], in the data set with HCV luciferase replicon [1], the IC50 was found to be 0.0174 ± 0.0018 µM and the “Therapeutic Index (TC50/IC50)” value is recorded as >5750. For the same molecule, in “in vitro”, the CC50 at 48 h is > 100 µM. In data set [3], the solubility was > 500 µM.
Regarding `CCc1ccc(C(=O)Nc2ccn(C3O[C@H](CO)[C@@H](O)C3(F)F)c(=O)n2)cc1` (stereo partly drawn) [VV-038], in the data set with HCV luciferase replicon [1], the IC50 worked out at 0.0584 ± 0.0099 µM and the “Therapeutic Index (TC50/IC50)” value came out at 8430. Besides, the CC50 at 48 h in data set [9] is 492 ± 58 µM. The CC50 at 48 h with hENT1 was determined as 360 ± 80 µM.
Take `COc1c(Cl)cc(C(=O)Nc2ccn(C3O[C@H](CO)[C@@H](O)C3(F)F)c(=O)n2)cc1Cl` (stereo partly drawn) [VV-012]: in the data set with HCV luciferase replicon [1], the IC50 came out at 0.0193 ± 0.0016 µM and the “Therapeutic Index (TC50/IC50)” value is given as >5180. Moreover, the CC50 at 48 h in the data set “in vitro” is > 100 µM. In addition, the solubility in data set [3] was > 500 µM.
The corresponding values for `O=C(Nc1ccn(C2O[C@H](CO)[C@@H](O)C2(F)F)c(=O)n1)c1ccc(Cl)cc1Cl` (stereo partly drawn) [VV-006] are 0.0775 ± 0.007 µM, >1290, > 100 µM and < 500 µM.
For `COc1ccc(C(=O)Nc2ccn(C3O[C@H](CO)[C@@H](O)C3(F)F)c(=O)n2)cc1` (stereo partly drawn) [VV-013], in the data set with HCV luciferase replicon [1], the IC50 was 0.06 ± 0.0082 µM and the “Therapeutic Index (TC50/IC50)” value came to 9530. In the data set “in vitro”, this molecule had a CC50 at 48 h of 572 ± 73 µM. Besides, in data set [3], the solubility was > 500 µM.
On to `COc1cccc(OC)c1C(=O)Nc1ccn([C@@H]2O[C@H](CO)[C@@H](O)C2(F)F)c(=O)n1` [Compound G2DB, N^4-(2,6-Dimethoxybenzoyl)gemcitabine], for which, in the data set with HCV luciferase replicon [1], the IC50 stood at 0.451 ± 0.037 µM and the “Therapeutic Index (TC50/IC50)” value is 10155. Also, the CC50 in the data set with Huh7 cells [2] was determined as 4580 ± 1100 µM.
On to `COc1ccc(C(=O)Nc2ccn(C3O[C@H](CO)[C@@H](O)C3(F)F)c(=O)n2)c(OC)c1OC` (stereo partly drawn) [VV-022], for which, in the data set on HCV luciferase replicon [1], the IC50 was determined as 0.0346 ± 0.0035 µM and the “Therapeutic Index (TC50/IC50)” value is given as 8670. Moreover, the CC50 at 48 h in “in vitro” stood at 300 ± 39 µM. In addition, in data set [3], the solubility was > 500 µM.
Consider `O=C(O)c1cc(Cl)cc(Cl)c1` [3,5-dichlorobenzoic acid, reference compound], for which, in the data set with HCV luciferase replicon [8] (up to 500 μM), the “effect on the HCV luciferase replicon” value was “little effect”.
